The record followed here is the supplement of paper PMC10307832.

Compound in this assay: CNC(=O)c1cc(Oc2ccc(NC(=O)Nc3ccc(Cl)c(C(F)(F)F)c3)cc2)ccn1 [Sorafenib] + O=C(c1cc(Cc2n[nH]c(=O)c3ccccc23)ccc1F)N1CCN(C(=O)C2CC2)CC1 [Olaparib] (partner 8 µM)
As to the kind of experiment: relative viability (nuclei count vs DMSO), 5 days (fraction); higher = more cells survive. Summed up:
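Lung cancer cell lines in 1536-well plates got either a single drug or a fixed anchor-drug dose together with five library-drug doses (not always all listed) in √10 steps, by pin tool, on the day after seeding. Nuclei were counted after 5 days, and relative viability is the treated-to-vehicle ratio of nuclei counts. Values are medians of duplicate plates.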

Turning to RERF-LC-KJ, the relative viability runs as follows: (first compound 0.08 µM) 0.979; (first compound 0.253 µM) 0.784; (first compound 8 µM) 0.297.

Take NCI-H1437: the relative viability is, setting by setting: (first compound 0.08 µM) 0.633; (first compound 0.253 µM) 0.585; (first compound 2.53 µM) 0.493; (first compound 8 µM) 0.254.

In the case of HCC-827, the relative viability (first compound 0.08 µM) is 0.621, the relative viability (first compound 0.253 µM) was found to be 0.623, the relative viability (first compound 2.53 µM) amounted to 0.572 and the relative viability (first compound 8 µM) amounted to 0.464.

With NCI-H1703, the relative viability (first compound 0.08 µM) came to 0.317, the relative viability (first compound 0.253 µM) amounted to 0.27, the relative viability (first compound 2.53 µM) was determined as 0.194 and the relative viability (first compound 8 µM) stood at 0.192.

Regarding NCI-H2170, the relative viability (first compound 0.08 µM) was 0.63, the relative viability (first compound 0.253 µM) is 0.577, the relative viability (first compound 2.53 µM) came to 0.556 and the relative viability (first compound 8 µM) worked out at 0.365.

For the cell line BEN, the relative viability (first compound 0.08 µM) turned out to be 1.02, the relative viability (first compound 0.253 µM) came out at 1.1, the relative viability (first compound 2.53 µM) was 1.01 and the relative viability (first compound 8 µM) was determined as 0.791.

With A-427, the relative viability stood at 0.71 (first compound 0.08 µM), 0.771 (first compound 0.253 µM), 0.733 (first compound 2.53 µM) and 0.635 (first compound 8 µM).

For NCI-H727, the relative viability (first compound 0.08 µM) came to 0.826, the relative viability (first compound 0.253 µM) was 0.666, the relative viability (first compound 2.53 µM) stood at 0.693 and the relative viability (first compound 8 µM) stood at 0.659.

With LC-2-ad, the relative viability by setting is: (first compound 0.08 µM) 0.738; (first compound 0.253 µM) 0.768; (first compound 2.53 µM) 0.751; (first compound 8 µM) 0.655.

As to NCI-H23, the relative viability runs as follows: (first compound 0.08 µM) 0.31; (first compound 0.253 µM) 0.249; (first compound 2.53 µM) 0.343; (first compound 8 µM) 0.266.

Turning to NCI-H1792, the relative viability is, setting by setting: (first compound 0.08 µM) 0.645; (first compound 0.253 µM) 0.416; (first compound 2.53 µM) 0.347; (first compound 8 µM) 0.179.

Consider NCI-H2405, for which the relative viability runs as follows: (first compound 0.08 µM) 0.891; (first compound 0.253 µM) 0.852; (first compound 2.53 µM) 0.887; (first compound 8 µM) 0.807.

With NCI-H1993, the relative viability (first compound 0.08 µM) came out at 1.12, the relative viability (first compound 0.253 µM) amounted to 1.2, the relative viability (first compound 2.53 µM) turned out to be 1.22 and the relative viability (first compound 8 µM) was found to be 0.751.

With NCI-H1355, the relative viability is 0.753 (first compound 0.253 µM), 0.685 (first compound 2.53 µM) and 0.411 (first compound 8 µM).

On to NCI-H2009, for which the relative viability (first compound 0.08 µM) is 0.621, the relative viability (first compound 0.253 µM) was found to be 0.533, the relative viability (first compound 2.53 µM) turned out to be 0.524 and the relative viability (first compound 8 µM) is 0.556.

Regarding NCI-H2085, the relative viability (first compound 0.08 µM) is 0.763, the relative viability (first compound 0.253 µM) was found to be 0.851, the relative viability (first compound 2.53 µM) was 1.01 and the relative viability (first compound 8 µM) is 0.761.

In the case of HCC-78, the relative viability by setting is: (first compound 0.08 µM) 0.891; (first compound 0.253 µM) 0.953; (first compound 2.53 µM) 0.909; (first compound 8 µM) 0.819.

NCI-H3122: the relative viability (first compound 0.08 µM) amounted to 0.639, the relative viability (first compound 0.253 µM) worked out at 0.611, the relative viability (first compound 2.53 µM) turned out to be 0.6 and the relative viability (first compound 8 µM) is 0.53.

For EMC-BAC-2, the relative viability was 0.473 (first compound 0.08 µM), 0.387 (first compound 0.253 µM), 0.45 (first compound 2.53 µM) and 0.461 (first compound 8 µM).

Consider ChaGo-K-1, for which the relative viability by setting is: (first compound 0.08 µM) 0.41; (first compound 0.253 µM) 0.388; (first compound 2.53 µM) 0.441; (first compound 8 µM) 0.361.

Turning to NCI-H2347, the relative viability reads like this: (first compound 0.08 µM) 0.675; (first compound 0.253 µM) 0.502; (first compound 2.53 µM) 0.503; (first compound 8 µM) 0.519.

On to SW 900, for which the relative viability (first compound 0.08 µM) turned out to be 0.764, the relative viability (first compound 0.253 µM) worked out at 0.88, the relative viability (first compound 2.53 µM) came out at 0.909 and the relative viability (first compound 8 µM) is 0.34.

NCI-H1915: the relative viability reads like this: (first compound 0.08 µM) 0.283; (first compound 0.253 µM) 0.226; (first compound 2.53 µM) 0.266; (first compound 8 µM) 0.271.

As to HCC-15, the relative viability (first compound 0.08 µM) is 0.701, the relative viability (first compound 0.253 µM) worked out at 0.641, the relative viability (first compound 2.53 µM) turned out to be 0.575 and the relative viability (first compound 8 µM) was determined as 0.442.

Turning to 201T, the relative viability is, setting by setting: (first compound 0.08 µM) 0.812; (first compound 0.253 µM) 0.88; (first compound 2.53 µM) 0.877; (first compound 8 µM) 0.843.

In the case of NCI-H2228, the relative viability worked out at 0.868 (first compound 0.08 µM), 0.46 (first compound 0.253 µM), 0.532 (first compound 2.53 µM) and 0.294 (first compound 8 µM).

LK-2: the relative viability stood at 0.674 (first compound 0.08 µM), 0.734 (first compound 0.253 µM), 0.575 (first compound 2.53 µM) and 0.346 (first compound 8 µM).

Take NCI-H1650: the relative viability is, setting by setting: (first compound 0.08 µM) 0.684; (first compound 0.253 µM) 0.741; (first compound 2.53 µM) 0.707; (first compound 8 µM) 0.643.

As for NCI-H647, the relative viability runs as follows: (first compound 0.08 µM) 0.568; (first compound 0.253 µM) 0.524; (first compound 2.53 µM) 0.356; (first compound 8 µM) 0.0229.

Consider NCI-H460, for which the relative viability is 0.399 (first compound 0.08 µM), 0.335 (first compound 0.253 µM), 0.345 (first compound 2.53 µM) and 0.324 (first compound 8 µM).

In the case of LOU-NH91, the relative viability reads like this: (first compound 0.08 µM) 0.936; (first compound 0.253 µM) 0.975; (first compound 2.53 µM) 0.96; (first compound 8 µM) 0.657.

Consider H3255, for which the relative viability worked out at 0.574 (first compound 0.08 µM), 0.532 (first compound 0.253 µM), 0.536 (first compound 2.53 µM) and 0.438 (first compound 8 µM).

As to NCI-H661, the relative viability is, setting by setting: (first compound 0.08 µM) 0.726; (first compound 0.253 µM) 0.764; (first compound 2.53 µM) 0.679; (first compound 8 µM) 0.444.

As for LU99A, the relative viability (first compound 0.08 µM) is 0.244, the relative viability (first compound 0.253 µM) was determined as 0.234, the relative viability (first compound 2.53 µM) amounted to 0.244 and the relative viability (first compound 8 µM) is 0.237.

Take LCLC-103H: the relative viability is 0.796 (first compound 0.08 µM), 0.734 (first compound 0.253 µM), 0.831 (first compound 2.53 µM) and 0.832 (first compound 8 µM).
